The values that follow come from US20210094933A1, “RAPAFUCIN DERIVATIVE COMPOUNDS AND METHODS OF USE THEREOF” (The Johns Hopkins University, priority 2019, published 2021).

Type in all cases: cell-based
Test [1] deals with A549. Kind of test: Cell proliferation assay (Prolif.), IC50 relative to DMSO control. The conditions noted are these: A549 cells; for Prolif, A549: IC50 class relative to DMSO control. The procedure: (§1) Cell Proliferation Assay (Prolif.) Guo et al. (2018) Nat. Chem. 11:254-63. Specific cell lines are indicated in each assay and cultured in complete growth media. Activity is scored according to the IC50 values relative to DMSO control. “Low” indicates an IC50 greater than 600 nM, “Medium” indicates an IC50 between 300 nM and 600 nM “High” indicates an IC50 less than 300 nM. “Rel.Uptake” refers to uptake activity characterization relative to a single concentration assay. “Low” indicates a response greater than 0.6 times the activity relative to DMSO, “Medium” indicates a response between 0.6 and 0.3 times the activity relative to DMSO, “High” indicates a response less than 0.3 times the activity relative to DMSO.

Test [2] in a line: Cell proliferation assay, single concentration, response relative to DMSO; cell line indicated in each table. The conditions noted are these: A549 cells. How it is done: as §1
Test [3] is described as follows: Nucleoside uptake assay, single concentration (Rel.Uptake), response relative to DMSO; cell line indicated in each table. The procedure: (§2) Nucleoside Uptake Assay (uptake). Nuceloside uptake assays were performed with using 3H-Thymidine as described in Guo et al. (2018) Nat. Chem, 11:254-63. Specific cell lines are indicated in each assay and cultured in complete growth media. Activity is scored according to the IC50 values relative to DMSO control. “Low” indicates an IC50 greater than 600 nM, “Medium” indicates an IC50 between 300 nM and 600 nM “High” indicates an IC50 less than 300 nM. “Rel.Uptake” refers to uptake activity characterization relative to a single concentration assay. “Low” indicates a response greater than 0.6 times the activity relative to DMSO, “Medium” indicates a response between 0.6 and 0.3 times the activity relative to DMSO, “High” indicates a response less than 0.3 times the activity relative to DMSO.

Test [4] relates to 293T. The test can be described thus: Nucleoside uptake assay (3H-Thymidine), IC50 relative to DMSO control. The conditions noted are these: 3H-Thymidine uptake, 293T cells, IC50 class relative to DMSO control. How it is done: as §2
Where [5] appears, read: 293 T cells, nucleoside uptake at single concentration.

Each structure is given as a SMILES string.

As to `CCCC[C@H]1C(=O)C[C@@H](Cc2ccc3ccccc3c2)C(=O)N(C)[C@@H](COC(C)(C)C)C(=O)NCC(=O)N(C)CCC=CC(=O)OCC(C)(C)C(=O)C(=O)N2CCCC[C@H]2C(=O)O[C@H](CCc2ccc(OC)c(OC)c2OC)c2cccc(c2)OCC(=O)N1C` [Compound 561], the “Prolif, A549” value in test [1] was “medium”. The “Rel. Prolif., A549” value in test [2] was “medium”.
`CCCC[C@H]1C(=O)N[C@@H](Cc2ccc3ccccc3c2)C(=O)N(C)[C@@H](COC(C)(C)C)C(=O)NCC(=O)N(C)CCC=CC(=O)OCC(C)(C)C(=O)C(=O)N2CCCC[C@H]2C(=O)O[C@H](CCc2cc(OC)c(OC)cc2F)c2cccc(c2)OCC(=O)N1C` [Compound 569]: the “Prolif, A549” value in test [1] was “medium”. The “Rel. Prolif., A549” value in test [2] is “medium”.
For the molecule `CCCC[C@H]1C(=O)N[C@@H](Cc2ccc3ccccc3c2)C(=O)N(C)[C@@H](COC(C)(C)C)C(=O)NCC(=O)N(C)CCC=CC(=O)OCC(C)(C)C(=O)C(=O)N2CCCC[C@H]2C(=O)O[C@H](CCc2ccc(OC)c(OC)c2)c2cccc(c2F)OCC(=O)N1C` [Compound 1563], in test [1], the “Prolif, A549” value is reported as “high”. For the same molecule, the “Rel. Uptake, 293 T” value in test [3] (setting [5]) was “high”.
Take `CCCC[C@H]1C(=O)N[C@@H](Cc2ccc3ccccc3c2)C(=O)N(C)[C@@H](COC(C)(C)C)C(=O)NCC(=O)N(C)CCC=CC(=O)OCC(C)(C)C(=O)C(=O)N2CCCC[C@H]2C(=O)O[C@H](CCc2ccc(OC)c(OC)c2)c2cc(F)cc(c2)OCC(=O)N1C` [Compound 574]: the “Prolif, A549” value in test [1] was “low”. Also, the “Rel. Prolif., A549” value in test [2] is “low”.
Turning to `CCCC[C@H]1C(=O)N[C@@H](Cc2ccc3ccccc3c2)C(=O)N(C)[C@@H](COC(C)(C)C)C(=O)NCC(=O)N(C)CCC=CC(=O)OCC(C)(C)C(=O)C(=O)N2CCCC[C@H]2C(=O)O[C@H](CCc2ccc(OC)c(OC)c2)c2ccc(F)c(c2)OCC(=O)N1C` [Compound 576], the “Prolif, A549” value in test [1] is given as “medium”. For the same molecule, the “Rel. Prolif., A549” value in test [2] is on record as “medium”.
Take `CCCC[C@H]1C(=O)N[C@@H](Cc2ccc3ccccc3c2)C(=O)N(C)[C@@H](COC(C)(C)C)C(=O)NCC(=O)N(C)CCC=CC(=O)OCC(C)(C)C(=O)C(=O)N2CCCC[C@H]2C(=O)O[C@H](CCc2c(OC)ccc(OC)c2OC)c2cccc(c2)OCC(=O)N1C` [Compound 564]: the “Prolif, A549” value in test [1] was “low”. Besides, the “Rel. Prolif., A549” value in test [2] is “low”.
Consider `CCCC[C@H]1C(=O)N[C@@H](Cc2ccc3ccccc3c2)C(=O)N(C)[C@@H](COC(C)(C)C)C(=O)NCC(=O)N(C)CCC=CC(=O)OCC(C)(C)C(=O)C(=O)N2CCCC[C@H]2C(=O)O[C@H](CCc2cc(F)c(OC)c(OC)c2)c2cccc(c2)OCC(=O)N1C` [Compound 568], for which the “Prolif, A549” value in test [1] is listed as “medium”. The “Rel. Prolif., A549” value in test [2] is reported as “medium”.
`CCCC[C@H]1C(=O)N[C@@H](Cc2ccc3ccccc3c2)C(=O)N(C)[C@@H](COC(C)(C)C)C(=O)NCC(=O)N(C)CCC=CC(=O)OCC(C)(C)C(=O)C(=O)N2CCCC[C@H]2C(=O)O[C@H](CCc2ccc(OC)c(OC)c2)c2cc(ccc2F)OCC(=O)N1C` [Compound 573]: the “Prolif, A549” value in test [1] is on record as “low”. The “Rel. Prolif., A549” value in test [2] is recorded as “low”.
Consider `CCCC[C@H]1C(=O)N[C@@H](Cc2ccc3ccccc3c2)C(=O)N(C)[C@@H](COC(C)(C)C)C(=O)NCC(=O)N(C)CCC=CC(=O)OCC(C)(C)C(=O)C(=O)N2CCCC[C@H]2C(=O)O[C@H](CCc2cc(OC)c(OC)cc2OC)c2cccc(c2)OCC(=O)N1C` [Compound 562], for which the “Prolif, A549” value in test [1] was “medium”. Also, the “Rel. Prolif., A549” value in test [2] is “medium”.
Turning to `C=C1NCC(=O)N(C)CC/C=C\C(=O)OCC(C)(C)C(=O)C(=O)N2CCCC[C@H]2C(=O)O[C@H](CCc2ccc(OC)c(OC)c2)c2cccc(c2)NC(=O)CCC(=O)N(C)[C@@H](CC(C)C)C(=O)N[C@H](Cc2ccccc2)C(=O)N(C)[C@H]1[C@@H](C)CC` [Compound 1592], in test [1] (Homo sapiens), the IC50 – broadly, the concentration that inhibits the measured activity by half – was < 300 nM. Moreover, the “Rel. Uptake, 293 T” value in test [3] (setting [5]) was “Low (“Low” indicates a response greater than 0.6 times the activity relative to DMSO)”.
Regarding `CCCC[C@H]1C(=O)N[C@@H](Cc2ccc3ccccc3c2)C(=O)N(C)[C@@H](COC(C)(C)C)C(=O)NCC(=O)N(C)CCC=CC(=O)OCC(C)(C)C(=O)C(=O)N2CCCC[C@H]2C(=O)O[C@H](CCc2cc(OC)cc(OC)c2OC)c2cccc(c2)OCC(=O)N1C` [Compound 563], the “Prolif, A549” value in test [1] is listed as “low”. Further, the “Rel. Prolif., A549” value in test [2] was “low”.
For `CCCC[C@H]1C(=O)N[C@@H](Cc2ccc3ccccc3c2)C(=O)N(C)[C@@H](COC(C)(C)C)C(=O)NCC(=O)N(C)CCC=CC(=O)OCC(C)(C)C(=O)C(=O)N2CCN(C(=O)OCC3c4ccccc4-c4ccccc43)C[C@H]2C(=O)O[C@H](CCc2ccc(OC)c(OC)c2)c2cccc(c2)OCC(=O)N1C` [Compound 571], the “Prolif, A549” value in test [1] is on record as “low”. For the same molecule, the “Rel. Prolif., A549” value in test [2] is “low”.
On to `CCCC[C@H]1C(=O)N[C@@H](Cc2ccc3ccccc3c2)C(=O)N(C)[C@@H](COC(C)(C)C)C(=O)NCC(=O)N(C)CCC=CC(=O)OCC(C)(C)C(=O)C(=O)N2CCCC[C@H]2C(=O)O[C@H](CCc2ccc(OC)c(OC)c2)c2cncc(c2)OCC(=O)N1C` [Compound 1565], for which, in test [1], the “Prolif, A549” value is “low”. Also, the “Rel. Uptake, 293 T” value in test [3] (setting [5]) is listed as “low”.
With `CCCC[C@H]1C(=O)N[C@@H](Cc2ccc3ccccc3c2)C(=O)N(C)[C@@H](COC(C)(C)C)C(=O)NCC(=O)N(C)CCC=CC(=O)OCC(C)(C)C(=O)C(=O)N2CCCC[C@H]2C(=O)O[C@H](CCc2ccc(OC)c(O)c2)c2cccc(c2)OCC(=O)N1C` [Compound 1564], in test [1], the “Prolif, A549” value was “high”. Also, the “Rel. Uptake, 293 T” value in test [3] (setting [5]) is reported as “high”.
Regarding `CCCC[C@H]1C(=O)N[C@@H](Cc2ccc3ccccc3c2)C(=O)N(C)[C@@H](COC(C)(C)C)C(=O)NCC(=O)N(C)CCC=CC(=O)OCC(C)(C)C(=O)C(=O)N2CCCC[C@H]2C(=O)O[C@H](CCc2cc(OC)c(OC)c(OC)c2)c2cccc(c2)OCC(=O)N1C` [Compound 560], the “Prolif, A549” value in test [1] is listed as “medium”. Also, the “Rel. Prolif., A549” value in test [2] was “medium”.
With `CCCC[C@H]1C(=O)N[C@@H](Cc2ccc3ccccc3c2)C(=O)N(C)[C@@H](COC(C)(C)C)C(=O)NCC(=O)N(C)CCC=CC(=O)OCC(C)(C)C(=O)C(=O)N2CCCC[C@H]2C(=O)O[C@H](CCc2cc(O)c(OC)c(OC)c2)c2cccc(c2)OCC(=O)N1C` [Compound 566], the “Prolif, A549” value in test [1] is “medium”. Further, the “Rel. Prolif., A549” value in test [2] is recorded as “medium”.
Consider `COc1ccc(CC[C@H]2OC(=O)[C@@H]3CCCCN3C(=O)C(=O)C(C)(C)COC(=O)C=CCCN(C)C(=O)[C@H](CC(C)C)N(C)C(=O)[C@H]3CCCN3C(=O)[C@H]3C[C@@H](NC(=O)OC(C)(C)C)CN3C(=O)C(c3ccccc3)NC(=O)CCC(=O)Nc3cccc2c3)cc1OC` (some centres unmarked) [Compound 1087], for which, in test [4], the “Uptake, 293T” value was “low”. For the same molecule, the “Rel. Uptake, 293 T” value in test [3] (293 T cells, single concentration) was “low”.
With `CCCC[C@H]1C(=O)N[C@@H](Cc2ccc3ccccc3c2)C(=O)N(C)[C@@H](COC(C)(C)C)C(=O)NCC(=O)N(C)CCC=CC(=O)OCC(C)(C)C(=O)C(=O)N2CCCC[C@H]2C(=O)O[C@H](CCc2cc(OC)c(OC)cc2O)c2cccc(c2)OCC(=O)N1C` [Compound 567], in test [1], the “Prolif, A549” value is recorded as “medium”. In test [2], the “Rel. Prolif., A549” value was “medium”.
For `CCCC[C@H]1C(=O)N[C@@H](Cc2ccc3ccccc3c2)C(=O)N(C)[C@@H](COC(C)(C)C)C(=O)NCC(=O)N(C)CCC=CC(=O)OCC(C)(C)C(=O)C(=O)N2CCCC[C@H]2C(=O)O[C@H](CCc2ccc(OC)c(OC)c2O)c2cccc(c2)OCC(=O)N1C` [Compound 565], the “Prolif, A549” value in test [1] is on record as “medium”. For the same molecule, the “Rel. Prolif., A549” value in test [2] was “medium”.
On to `CCCC[C@H]1C(=O)N[C@@H](Cc2ccc3ccccc3c2)C(=O)N(C)[C@@H](COC(C)(C)C)C(=O)NCC(=O)N(C)CCC=CC(=O)OCC(C)(C)C(=O)C(=O)N2CCN(C)C[C@H]2C(=O)O[C@H](CCc2ccc(OC)c(OC)c2)c2cccc(c2)OCC(=O)N1C` [Compound 572], for which, in test [1], the “Prolif, A549” value was “medium”. The “Rel. Prolif., A549” value in test [2] is reported as “medium”.
Turning to `COc1ccc(CC[C@H]2OC(=O)[C@@H]3CCCCN3C(=O)C(=O)C(C)(C)COC(=O)C=CCCN(C)C(=O)[C@H](CC(C)C)N(C)C(=O)[C@H]3CCCN3C(=O)[C@H](Cc3ccc(CC(=O)OC(C)(C)C)cc3)NC(=O)C(c3ccccc3)NC(=O)CCC(=O)Nc3cccc2c3)cc1OC` (some centres unmarked) [Compound 1081], the “Uptake, 293T” value in test [4] is given as “medium”. In addition, the “Rel. Uptake, 293 T” value in test [3] (nucleoside uptake, single concentration, 293T cells) is “medium”.
For the molecule `CCCC[C@H]1C(=O)N[C@@H](Cc2ccc3ccccc3c2)C(=O)N(C)[C@@H](COC(C)(C)C)C(=O)NCC(=O)N(C)CCC=CC(=O)OCC(C)(C)C(=O)C(=O)N2CCCC[C@H]2C(=O)O[C@H](CCc2ccc(OC)c(OC)c2F)c2cccc(c2)OCC(=O)N1C` [Compound 570], in test [1], the “Prolif, A549” value was “medium”. Moreover, the “Rel. Prolif., A549” value in test [2] is recorded as “medium”.
